Where two headings read alike, the source gives them in different places.
What was measured:
[1] = cited from earlier work
female SJL mice = experiment: EAE induced with PLP 139-151 in female SJL mice (clinical scores, spinal cord histopathology); format: in vivo; details: for Demyelinated foci/section / Inflammatory foci/section: spinal cord at peak of disease
B10.PL mice = experiment: EAE induced with MBP Ac1-11 in B10.PL mice; format: in vivo
DLN cells = experiment: PLP 139-151 induced cytokine production by DLN cells (ELISA); format: in vivo, mice; details: 48-72 hours after PLP 139-151 stimulation
Experimental: Cytokine detection by ELISA. DLN cells were cultured at 4×10^6/ml and stimulated with the appropriate antigen in 24 well culture plates. Cell culture supernatants were recovered between 48-72 hr and frozen at −70° C. until needed for the cytokine assay. Measurement of cytokines was performed by ELISA using cytokine specific capture and detection antibodies (Pharmingen). Standard curves for each assay were generated using recombinant mouse cytokines (Pharmingen), and the concentration of cytokines in the cell supernatants was determined by interpolation from the appropriate standard curve. IFN-γ, TNF-α and IL-12 were chosen as representative Th1 cytokines, while IL-4 and IL-10 were measured as representative Th2 cytokines.
To determine if low dose estrogen therapy altered cytokine secretion patterns, DLN cells were prepared from individual mice at the peak of clinical EAE and cytokine levels were measured 48-72 hours after in vitro stimulation with PLP 139-151. IFN-γ, IL-12, and TNF-α were used as representative Th1 cytokines while IL-4, and IL-10 were used as representative Th2 cytokines. […] Despite the lack of statistical significance, the trend towards higher Th1 and lower Th2 cytokines points towards a subtle shift in the Th1/Th2 balance. The shift can be seen more clearly when the cytokine response of each individual mouse is plotted as a ratio of IFN-γ to IL-10 (FIG. 5C). There was a marked decrease in the frequency of high Th1 responder mice in the E2 and E3 treated groups when compared to placebo animals that approached significance (p=0.09 for the 5.0 mg E3 treated mice). Additionally, no informative trends were detected in IL-4 secretion (FIG. 5D), and TNF-α secretion was very often below the limits of detection for the assay (<31.25 pg/ml). Modest changes in cytokine responses induced by low dose estrogen therapy were also observed in the B10.PL model and were consistent with the data described for the SJL model.

male SJL mice = experiment: EAE induced with PLP 139-151 in male SJL mice; format: in vivo
[2] = tested on: draining lymph node (DLN) cells; experiment: Flow cytometry of activation and adhesion markers on DLN cells of SJL mice with EAE; format: in vivo; details: DLN cells at peak of EAE
Experimental: Immunofluorescent staining for flow cytometry. Draining lymph node (DLN) cells were removed during the peak of clinical symptoms and analyzed for the expression of cell surface proteins by fluorescent staining ex vivo. The following fluorochrome conjugated antibodies obtained from Pharmingen Inc. (San Diego, Calif.) were used for the direct staining of DLN cells: anti-CD4, anti-CD25, anti-CD69, anti-CD95L, anti-CD44, anti-CD62L, anti-CD49d. Two-color immunofluorescent analysis was performed on a FACScan instrument (Becton Dickinson, Mountain View, Calif.) using Cellquest software. For each experiment the cells were stained with isotype control antibodies to establish background staining, and to set the quadrants prior to calculating the percent positive staining cells. […] Alterations in the expression of adhesion or activation markers on T cells are often indicative of functional changes in the cell. Monoclonal antibodies specific for a number of these markers were used to assess whether estrogen therapy altered their expression. Draining lymph node (DLN) cells were recovered from mice during the peak of clinical EAE, incubated with the indicated fluorochrome conjugated monoclonal antibodies, and surface expression measured by fluorescent activated cell analyzer.

C[C@]12CC[C@@H]3c4ccc(O)cc4CC[C@H]3[C@@H]1C[C@@H](O)[C@@H]2O [Estriol, estriol]
serum concentration from 60-day release pellet ([1]; 0.025 mg pellet): 10 to 20 pg/mL | serum concentration from 60-day release pellet ([1]; 0.1 mg pellet): 40 to 50 pg/mL | serum concentration from 60-day release pellet ([1]; 0.36 mg pellet): 150 to 200 pg/mL | serum concentration from 60-day release pellet ([1]; 1.5 mg pellet): 800-1,000 pg/ml | serum concentration from 60-day release pellet ([1]; 2.5 mg pellet): 2,000-3,000 pg/ml | serum concentration from 60-day release pellet ([1]; 5 mg pellet): 5,000-6,000 pg/ml | serum concentration from 60-day release pellet ([1]; 15 mg pellet): 10,000-15,000 pg/ml | CDI (cumulative disease index) (female SJL mice; 1.5 mg/pellet (low)): 9.3 ± 2.6 | Incidence (female SJL mice; 1.5 mg/pellet (low)): 6/10 | Incidence (%) (female SJL mice; 1.5 mg/pellet (low)): (60%) | Onset (female SJL mice; 1.5 mg/pellet (low)): 16.4 ± 0.7 days | Peak (disease score) (female SJL mice; 1.5 mg/pellet (low)): 2.0 ± 0.0 | Relapse (female SJL mice; 1.5 mg/pellet (low)): 0/3 | Relapse (%) (female SJL mice; 1.5 mg/pellet (low)): (0%) | Demyelinated foci/section (female SJL mice; 2.5 mg pellet): 0.8 ± 0.2 foci/section | Inflammatory foci/section (female SJL mice; 2.5 mg pellet): 1.2 ± 0.6 foci/section | Demyelinated foci/section (female SJL mice; 5.0 mg pellet): 0.3 ± 0.2 foci/section | Inflammatory foci/section (female SJL mice; 5.0 mg pellet): 0.9 ± 0.5 foci/section | CDI (cumulative disease index) (female SJL mice; 5.0 mg/pellet (pregnancy)): 6.5 ± 9 | Incidence (female SJL mice; 5.0 mg/pellet (pregnancy)): 2/5 | Incidence (%) (female SJL mice; 5.0 mg/pellet (pregnancy)): (40%) | Onset (female SJL mice; 5.0 mg/pellet (pregnancy)): 33.5 ± 5.0 days | Peak (disease score) (female SJL mice; 5.0 mg/pellet (pregnancy)): 1.4 ± 2.2 | Relapse (female SJL mice; 5.0 mg/pellet (pregnancy)): 0/2 | Relapse (%) (female SJL mice; 5.0 mg/pellet (pregnancy)): (0%) | CDI (cumulative disease index) (female SJL mice; 15.0 mg/pellet (high)): 4.4 ± 3.5 | Incidence (female SJL mice; 15.0 mg/pellet (high)): 5/10 | Incidence (%) (female SJL mice; 15.0 mg/pellet (high)): (50%) | Onset (female SJL mice; 15.0 mg/pellet (high)): 23.8 ± 9 days | Peak (disease score) (female SJL mice; 15.0 mg/pellet (high)): 1.4 ± 1.1 | Relapse (female SJL mice; 15.0 mg/pellet (high)): 0/1 | Relapse (%) (female SJL mice; 15.0 mg/pellet (high)): (0%) | comparison of E2 and E3 in incidence or severity of EAE (female SJL mice; Fisher exact test, same animal model): equally protective | CDI (B10.PL mice; 1.5 mg/pellet (low)): 1.9 ± 1.7 | Incidence (B10.PL mice; 1.5 mg/pellet (low)): 5/8 | Incidence (%) (B10.PL mice; 1.5 mg/pellet (low)): 38% | Onset (B10.PL mice; 1.5 mg/pellet (low)): 30.3 ± 0.9 days | Peak (disease score) (B10.PL mice; 1.5 mg/pellet (low)): 1.38 ± 0.8 | CDI (B10.PL mice; 5 mg/pellet (pregnancy)): 1.0 ± 0.5 | Incidence (B10.PL mice; 5 mg/pellet (pregnancy)): 3/8 | Incidence (%) (B10.PL mice; 5 mg/pellet (pregnancy)): 38% | Onset (B10.PL mice; 5 mg/pellet (pregnancy)): 31.3 ± 0.7 days | Peak (disease score) (B10.PL mice; 5 mg/pellet (pregnancy)): 0.71 ± 0.4 | inhibitory effect on EAE compared with 17β-estradiol (B10.PL mice; B10.PL females): equivalent inhibitory effect on EAE | IL-10 secretion by DLN cells (DLN cells): modest increase | IL-12 secretion by DLN cells (DLN cells): small decrease | secretion of IFN-γ by DLN cells (DLN cells; p>0.10): consistently lower | CDI (male SJL mice; 2.5 mg/pellet): 3.2 ± 2.5 | Incidence (male SJL mice; 2.5 mg/pellet): 2/3 | Incidence (%) (male SJL mice; 2.5 mg/pellet): 67% | Onset (male SJL mice; 2.5 mg/pellet): 16.5 ± 0.7 days | Peak (disease score) (male SJL mice; 2.5 mg/pellet): 0.67 ± 0.6 | CDI (male SJL mice; 5.0 mg/pellet): 2.6 ± 5.3 | Incidence (male SJL mice; 5.0 mg/pellet): 1/4 | Incidence (%) (male SJL mice; 5.0 mg/pellet): 25% | Onset (male SJL mice; 5.0 mg/pellet): 16.0 ± 0 days | Peak (disease score) (male SJL mice; 5.0 mg/pellet): 0.50 ± 1.0 | CD4, % of Total ([2]; 2.5 mg pellet): 45% | CD25, % of CD4+ T cells ([2]; 2.5 mg pellet): 5.5% | CD44, % of CD4+ T cells ([2]; 2.5 mg pellet): 36% | CD62L, % of CD4+ T cells ([2]; 2.5 mg pellet): 12% | CD69, % of CD4+ T cells ([2]; 2.5 mg pellet): 7.5% | CD49d, % of CD4+ T cells ([2]; 2.5 mg pellet): 36% | FASL, % of CD4+ T cells ([2]; 2.5 mg pellet): 3.1% | CD4, % of Total ([2]; 5.0 mg pellet): 47% | CD25, % of CD4+ T cells ([2]; 5.0 mg pellet): 6.4% | CD44, % of CD4+ T cells ([2]; 5.0 mg pellet): 38% | CD62L, % of CD4+ T cells ([2]; 5.0 mg pellet): 8.8% | CD69, % of CD4+ T cells ([2]; 5.0 mg pellet): 8.3% | CD49d, % of CD4+ T cells ([2]; 5.0 mg pellet): 37% | FASL, % of CD4+ T cells ([2]; 5.0 mg pellet): 2.7%

— patent publication US7579006B2, “Method of treating immune pathologies with low dose estrogen” (Oregon Health and Science University, priority 2000, dated 2009)
